{"source": "the NIST ThermoML archive (doi:10.1016/j.tca.2011.07.006)", "key": {"[1]": {"conditions": "Crystal; DTA"}, "[2]": {"test": "Molar enthalpy of transition or fusion", "conditions": "Crystal; DSC"}}, "note": "± gives the expanded uncertainty stated by the source."}
{"smiles": "CCn1cc[n+](C)c1.[Cl-]", "note": "[1-ethyl-3-methylimidazolium chloride]", "values": [{"measurement": "Normal melting temperature", "setting": "[1]", "value": "97.0 ± 0.5", "unit": "°C"}, {"measurement": "Molar enthalpy of transition or fusion", "setting": "[2]", "value": "3.61 ± 0.311", "unit": "kcal/mol"}]}
{"smiles": "CCn1cc[n+](C)c1.[Cl-].[Cl][Al]([Cl])[Cl]", "note": "[1-ethyl-3-methyl-1H-imidazolium tetrachloroaluminate]", "values": [{"measurement": "Normal melting temperature", "setting": "[1]", "value": "6.5 ± 0.5", "unit": "°C"}, {"measurement": "Molar enthalpy of transition or fusion", "setting": "[2]", "value": "3.3 ± 0.167", "unit": "kcal/mol"}]}
